Data published in paper PMC11434868, “Synthesis and Antiproliferative Effect of 3,4,5-Trimethoxylated Chalcones on Colorectal and Prostatic Cancer Cells” (Pharmaceuticals, 2024).

Experiments:
HCT116 [1] = assay: MTT assay, antiproliferative effect on HCT116; assay type: cell-based; conditions: Homo sapiens
Procedure: (§1) Human CRC (HCT116 and HT-29) and PCa (DU145 and PC3) cell lines were purchased from the American Type Culture Collection (ATCC—LGC Standards, Molsheim, France). All cells were grown in RPMI 1640 medium supplemented with 10% FBS, 1% L-glutamine, 100 U/mL penicillin, and 100 μg/mL streptomycin. Cultures were maintained in a humidified atmosphere containing 5% CO2 at 37 °C. Cells were seeded in 75 cm^2 culture flasks at 1.2 × 10^4 cells/cm^2 for HCT116, DU145, and PC3 cells, and 2.0 × 10^4 for HT-29 cells. Cells were grown for 24 h in culture medium prior to exposure or not to obtain the synthesized compounds. Stock solutions (10^−2 M in DMSO) of each compound were diluted in culture medium to obtain appropriate final concentrations.
(§2) • (a) MTT assay: The antiproliferative effect of all compounds was determined using MTT assay (a metabolic activity test). Briefly, cells were seeded in 96-well culture plates at 4 × 10^3 cells/well for HCT116, PC3, and DU145 cells and 6 × 10^3 cells/well for HT-29 cells (100 µL/well), and grown for 24 h in culture medium prior to exposure or not to obtain compounds 1–15 with concentrations ranging from 5 nM to 50 μM. After 24 and 48 h of treatment, MTT (5 mg/mL in PBS) was added and incubated for another 3 h. MTT was then removed from the wells before adding 100 μL/well of DMSO. The optical density was detected with a microplate reader (Multiskan FC, Thermoscientific, Bordeaux, France) at 550 nm and cell viability was expressed as a percentage of each treatment condition compared to control cells. IC50 values were calculated for all compounds from the dose–response curve. Data are expressed as the arithmetic means ± standard error of the mean (SEM) of separate experiments. All experiments were performed at least in triplicate. • (b) Trypan blue dye exclusion method: Cells were grown for 24 h then treated with compounds 10 and 13 at indicated concentrations. After 48 h of treatment, cells were trypsinized and resuspended in complete medium. Each sample was mixed with Trypan blue solution (0.14% in HBSS, Invitrogen-GIBCO, ThermoFisher, Illkirch, France). Colored (non-viable) and dye-excluding (viable) cells were counted with the LUNA-II automated cell Counter (Logos Biosystems; MC2, Aubière, France). The control was normalized to 100% including viable and dead cells. The results indicated on the histograms were expressed as the percentage of cells compared to the control. IC50 values were determined from the percentages of viable cells compared to the control.

DU145 [2] = assay: MTT assay, antiproliferative effect on DU145; assay type: cell-based; conditions: Homo sapiens
Procedure: as §1, §2

HCT116 [3] = assay: Trypan blue dye exclusion method on HCT116; assay type: cell-based, human
Procedure: as §1, §2

DU145 [4] = assay: Trypan blue dye exclusion method on DU145; assay type: cell-based, human
Procedure: as §1, §2

HT-29 [5] = assay: Trypan blue dye exclusion method on HT-29; assay type: cell-based, human
Procedure: as §1, §2

[6] = system: caspase-3 and PARP in DU145 cells; assay: Western blot of apoptosis-related proteins in DU145; assay type: cell-based, human; conditions: DU145, 48 h;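 note: compared with untreated control cells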
Procedure: (§3) For total protein extraction, collected samples of each condition were washed in PBS. Then, the total cell pool was centrifuged at 200 g for 5 min at 4 °C and homogenized in RIPA lysis buffer (50 mM HEPES, pH 7.5, 150 mM NaCl, 1% sodium deoxycholate, 1% NP-40, 0.1% SDS, […] of aprotinin) containing protease inhibitors according to the manufacturer’s instructions. After quantification of protein levels using the Bradford method, proteins ([…]) were separated on 12.5% SDS-PAGE gels and transferred to PVDF membranes (GE Healthcare Life Science—Fisher Scientific). Membranes were probed with respective antibodies against human caspase-3, cleaved caspase-3, and PARP according to the manufacturer’s instructions. After incubation with appropriate secondary antibodies, blots were developed using the “ImmobilonWestern” substrate, following the manufacturer’s protocol, and G:BOX system (Syngene, Cambridge, UK). Membranes were then reblotted with human anti-β-actin used as a loading control.

[7] = system: caspase-3 and PARP in HT-29 cells; assay: Western blot of apoptosis-related proteins in HT-29; assay type: cell-based, human; conditions: HT-29, 48 h;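 note: compared with untreated control cells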
Procedure: as §3

PC3 [8] = assay: Trypan blue dye exclusion method on PC3; assay type: cell-based, human
Procedure: as §1, §2

PC3 [9] = assay: MTT assay, antiproliferative effect on PC3; assay type: cell-based; conditions: Homo sapiens
Procedure: as §1, §2

[10] = system: caspase-3 and PARP in PC3 cells; assay: Western blot of apoptosis-related proteins in PC3; assay type: cell-based, human; conditions: PC3, 48 h;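 note: compared with untreated control cells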
Procedure: as §3

HT-29 [11] = assay: MTT assay, antiproliferative effect on HT-29; assay type: cell-based, human; conditions: Homo sapiens
Procedure: as §1, §2

[12] = system: caspase-3 and PARP in HCT116 cells; assay: Western blot of apoptosis-related proteins in HCT116; assay type: cell-based, human; conditions: HCT116, 48 h;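 note: compared with untreated control cells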
Procedure: as §3

IC50 (HCT116 [1]; HCT-116, 24 h, read-out: IC50 HCT116 24 h): 2.86 ± 0.2 µM
IC50 (HCT116 [1]; HCT-116, 48 h, read-out: IC50 HCT116 48 h): 2.59 ± 0.12 µM
IC50 (DU145 [2]; DU-145, 24 h, read-out: IC50 DU145 24 h): 3.92 ± 0.24 µM
IC50 (DU145 [2]; DU-145, 48 h, read-out: IC50 DU145 48 h): 3.31 ± 0.09 µM
IC50 (HCT116 [3]; Homo sapiens, HCT-116, 48 h, from percentages of viable cells, read-out: IC50 Trypan Blue Test HCT116): 3.48 µM
IC50 (DU145 [4]; Homo sapiens, DU-145, 48 h, from percentages of viable cells, read-out: IC50 Trypan Blue Test DU145): 3.98 µM
IC50 (HT-29 [5]; Homo sapiens, HT-29, 48 h, from percentages of viable cells, read-out: IC50 Trypan Blue Test HT-29): 4.05 µM
IC50 (PC3 [8]; Homo sapiens, PC-3, 48 h, from percentages of viable cells, read-out: IC50 Trypan Blue Test PC3): 5.33 µM
IC50 (PC3 [9]; PC-3, 24 h, read-out: IC50 PC3 24 h): 5.18 ± 0.39 µM
IC50 (PC3 [9]; PC-3, 48 h, read-out: IC50 PC3 48 h): 5.13 ± 0.25 µM
IC50 (HT-29 [11]; HT-29, 24 h, 24 h, read-out: IC50 HT-29 24 h): 3.88 ± 0.08 µM
IC50 (HT-29 [11]; HT-29, 48 h, 48 h, read-out: IC50 HT-29 48 h): 3.1 ± 0.17 µM
SMILES: COc1cc(C(=O)/C=C/c2coc3ccc(C)cc3c2=O)cc(OC)c1OC [chalcone 13, (E)-6-methyl-3-(3-oxo-3-(3,4,5-trimethoxyphenyl)prop-1-en-1-yl)-4H-chromen-4-one]
Dead cells (HCT116 [3]; HCT116, 48 h, 2.5 µM): 5.46%
Dead cells (HCT116 [3]; HCT116, 48 h, 5 µM): 11.11%
Dead cells (HCT116 [3]; HCT116, 48 h, 7.5 µM): 10.46%
viability at 2.5 µM (HCT116 [3]; Homo sapiens, HCT-116, HCT116, 48 h, 2.5 µM, read-out: Viable cells): 74.1%
viability at 5 µM (HCT116 [3]; Homo sapiens, HCT-116, HCT116, 48 h, 5 µM, read-out: Viable cells): 19.6%
viability at 7.5 µM (HCT116 [3]; Homo sapiens, HCT-116, HCT116, 48 h, 7.5 µM, read-out: Viable cells): 10.1%
Dead cells (DU145 [4]; DU145, 48 h, 2.5 µM): 3.24%
Dead cells (DU145 [4]; DU145, 48 h, 5 µM): 8.67%
Dead cells (DU145 [4]; DU145, 48 h, 7.5 µM): 6.49%
viability at 2.5 µM (DU145 [4]; Homo sapiens, DU-145, DU145, 48 h, 2.5 µM, read-out: Viable cells): 84.6%
viability at 5 µM (DU145 [4]; Homo sapiens, DU-145, DU145, 48 h, 5 µM, read-out: Viable cells): 29.3%
viability at 7.5 µM (DU145 [4]; Homo sapiens, DU-145, DU145, 48 h, 7.5 µM, read-out: Viable cells): 12.8%
Dead cells (HT-29 [5]; HT-29, 48 h, 2.5 µM): 5.48%
Dead cells (HT-29 [5]; HT-29, 48 h, 7.5 µM): 9.04%
viability at 2.5 µM (HT-29 [5]; Homo sapiens, HT-29, 48 h, 2.5 µM, read-out: Viable cells): 72.2%
viability at 5 µM (HT-29 [5]; Homo sapiens, HT-29, 48 h, 5 µM, read-out: Viable cells): 37.6%
viability at 7.5 µM (HT-29 [5]; Homo sapiens, HT-29, 48 h, 7.5 µM, read-out: Viable cells): 18.5%
PARP cleavage (89 kDa fragment) [6]: clearly observed
cleaved caspase-3 [6]: clearly observed
native PARP expression [6]: strong decreased expression
pro-caspase-3 expression [6]: decrease was less marked
PARP cleavage (89 kDa fragment) [7]: clearly observed
cleaved caspase-3 [7]: clearly observed
native PARP expression [7]: strong decreased expression
pro-caspase-3 expression [7]: decreased
viability at 2.5 µM (PC3 [8]; Homo sapiens, PC-3, PC3, 48 h, 2.5 µM, read-out: Viable cells): 92.8%
viability at 5 µM (PC3 [8]; Homo sapiens, PC-3, PC3, 48 h, 5 µM, read-out: Viable cells): 54.3%
viability at 7.5 µM (PC3 [8]; Homo sapiens, PC-3, PC3, 48 h, 7.5 µM, read-out: Viable cells): 15.4%
Dead cells (PC3 [8]; PC3, 48 h, 2.5 µM): 9.51%
Dead cells (PC3 [8]; PC3, 48 h, 5 µM): 6.14%
Dead cells (PC3 [8]; PC3, 48 h, 7.5 µM): 4.23%
PARP cleavage (89 kDa fragment) [10]: clearly observed
cleaved caspase-3 [10]: clearly observed
native PARP expression [10]: strong decreased expression
pro-caspase-3 expression [10]: decreased
cleaved caspase-3 [12]: clearly observed
native PARP expression [12]: strong decreased expression
pro-caspase-3 expression [12]: decreased
